Experimental findings from US8030498B2, “Benzoylpyrazole compounds and herbicides containing them” (Ishihara Sangyo Kaisha, Ltd., priority 2005, dated 2011) are described below.

Test [1] relates to barnyardgrass (Echinochloa crus-galli L.). Nature of the test: Test Example 1: foliar treatment, growth inhibition rate, barnyardgrass. The test is classed as in vivo. The following applies: 31 g/ha active ingredient, visually observed 17th to 23rd day after application. The procedure, abridged:
(§1)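 Visual scoring of growth inhibition, 0% (untreated) to 100% (complete kill), on days 17–23 following post-emergence spray of formulated compound in water (500 L/ha, 0.1 vol % spreader); plants treated at set leaf stages, e.g. corn 2.0–3.5, wheat 1.7–3.4.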

Test [2] relates to rice. Nature of the test: Test Example 2: soil application on the day after sowing, growth inhibition rate, rice. The format is in vivo, Oryza sativa L. As to conditions: 250 g/ha active ingredient, observed on 19th to 24th day. Put shortly:
(§2)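 Upland soil pots sown with crop and weed seeds; next day wettable powder or emulsifiable concentrate at prescribed active-ingredient amounts, diluted to 500 L/ha water, sprayed onto soil. Growth inhibition scored visually 19–24 days later, 0 (as untreated) to 100% (complete kill).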

The test system of test [3] is velvetleaf. The test is described as follows: Test Example 2: soil application on the day after sowing, growth inhibition rate, velvetleaf. The format is in vivo, Abutilon theophrasti MEDIC. The following applies: 250 g/ha active ingredient, observed on 19th to 24th day. The procedure, abridged: as §2
For test [4], the system named is corn (Zea mays L.). The test is described as follows: Test Example 1: foliar treatment, growth inhibition rate, corn. The test is classed as in vivo. The following applies: 31 g/ha active ingredient, visually observed 17th to 23rd day after application. Put shortly:
(§3)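 Potted upland soil; compounds as wettable powders or emulsifiable concentrates diluted in water at 500 L/ha plus 0.1 vol % spreader, foliar-sprayed at defined leaf stages (rice 1.0–2.5, wheat 1.7–3.4, corn 2.0–3.5, greenfoxtail 1.0–3.0). Growth inhibition (0–100%) scored visually 17–23 days after application.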

The subject of test [5] is rice (Oryza sativa L.). The test is described as follows: Test Example 1: foliar treatment, growth inhibition rate, rice. The format is in vivo. The following applies: 31 g/ha active ingredient, visually observed 17th to 23rd day after application. Put shortly: as §3
Test [6] deals with prickly sida (Sida spinosa L.). The test is described as follows: Test Example 1: foliar treatment, growth inhibition rate, prickly sida. The test is classed as in vivo. The following applies: 31 g/ha active ingredient, visually observed 17th to 23rd day after application. The procedure, abridged:
as §1

Test [7] relates to crabgrass. Nature of the test: Test Example 2: soil application on the day after sowing, growth inhibition rate, crabgrass. The format is in vivo, Digitaria sanguinalis L. As to conditions: 250 g/ha active ingredient, observed on 19th to 24th day. The procedure, abridged: as §2
In test [8] the test system is wheat. The test is described as follows: Test Example 2: soil application on the day after sowing, growth inhibition rate, wheat. The format is in vivo, Triticum spp. The following applies: 250 g/ha active ingredient, observed on 19th to 24th day. The procedure, abridged:
as §2

Test [9] deals with soybean (Glycine max Merr.). The test is described as follows: Test Example 1: foliar treatment, growth inhibition rate, soybean. The format is in vivo. The following applies: 31 g/ha active ingredient, visually observed 17th to 23rd day after application. The procedure, abridged: as §1
The test system of test [10] is barnyardgrass. The test is described as follows: Test Example 2: soil application on the day after sowing, growth inhibition rate, barnyardgrass. The test is classed as in vivo, Echinochloa crus-galli L. As to conditions: 250 g/ha active ingredient, observed on 19th to 24th day. The procedure, abridged:
as §2

Test [11] deals with redroot pigweed (Amaranthus retroflexus L.). Nature of the test: Test Example 1: foliar treatment, growth inhibition rate, redroot pigweed. The following applies: 31 g/ha active ingredient, visually observed 17th to 23rd day after application. The format is in vivo. Put shortly:
as §1

Test [12] concerns corn. The test is described as follows: Test Example 2: soil application on the day after sowing, growth inhibition rate, corn. The following applies: 250 g/ha active ingredient, observed on 19th to 24th day. The format is in vivo, Zea mays L. Put shortly:
as §2

Test [13] has as its system greenfoxtail (Setaria viridis L.). Nature of the test: Test Example 1: foliar treatment, growth inhibition rate, greenfoxtail. The test is classed as in vivo. As to conditions: 31 g/ha active ingredient, visually observed 17th to 23rd day after application. The procedure, abridged: as §3
Test [14] concerns velvetleaf (Abutilon theophrasti MEDIC.). The test is described as follows: Test Example 1: foliar treatment, growth inhibition rate, velvetleaf. The format is in vivo. As to conditions: 31 g/ha active ingredient, visually observed 17th to 23rd day after application. Put shortly: as §1
Test [15] has as its system soybean. Nature of the test: Test Example 2: soil application on the day after sowing, growth inhibition rate, soybean. The following applies: 250 g/ha active ingredient, observed on 19th to 24th day. The test is classed as in vivo, Glycine max Merr. Put shortly: as §2
Test [16] deals with prickly sida. The test is described as follows: Test Example 2: soil application on the day after sowing, growth inhibition rate, prickly sida. The test is classed as in vivo, Sida spinosa L. As to conditions: 250 g/ha active ingredient, observed on 19th to 24th day. The procedure, abridged: as §2
Test [17] relates to crabgrass (Digitaria sanguinalis L.). The test is described as follows: Test Example 1: foliar treatment, growth inhibition rate, crabgrass. The test is classed as in vivo. As to conditions: 31 g/ha active ingredient, visually observed 17th to 23rd day after application. The procedure, abridged:
as §1

Test [18] relates to redroot pigweed. Nature of the test: Test Example 2: soil application on the day after sowing, growth inhibition rate, redroot pigweed. The format is in vivo, Amaranthus retroflexus L. As to conditions: 250 g/ha active ingredient, observed on 19th to 24th day. Put shortly: as §2
Test [19] relates to greenfoxtail. Nature of the test: Test Example 2: soil application on the day after sowing, growth inhibition rate, greenfoxtail. The format is in vivo, Setaria viridis L. As to conditions: 250 g/ha active ingredient, observed on 19th to 24th day. Put shortly:
as §2

Test [20] relates to wheat (Triticum spp.). The test is described as follows: Test Example 1: foliar treatment, growth inhibition rate, wheat. The test is classed as in vivo. As to conditions: 31 g/ha active ingredient, visually observed 17th to 23rd day after application. Put shortly:
as §3

Broadly, the pest or weed control is how far the test organism was held down. A lower pest or weed control goes with a weak effect. One may read the inhibition as the percentage by which the read-out fell short of the control. Higher therefore signals a response far below the control.

Turning to `CCSC(=O)Oc1c(C(=O)c2ccc(S(C)(=O)=O)c(OCCOC)c2Cl)cnn1C` [compound 216], the “Growth inhibition rate (%) Barnyardgrass” value is 100% in test [1] and 95% in test [10]. Also, the “Growth inhibition rate (%) Rice” value stood at 80% in [2] and 70% in test [5]. Further, the figures for the “Growth inhibition rate (%) Velvetleaf” value in test [3] and in test [14] were 90% and 98%, respectively. For the same compound, the “Growth inhibition rate (%) Corn” value was found to be 10% in test [4] and 0% in [12]. The entries for the “Growth inhibition rate (%) Prickly sida” value in test [6] and in test [16] were 50% and 80%, respectively. Also, the “Growth inhibition rate (%) Crabgrass” value in [7] and in test [17] was 100% in each case. The “Growth inhibition rate (%) Wheat” value in test [8] and in test [20] was 0% throughout. Moreover, the “Growth inhibition rate (%) Soybean” value is recorded as 95% in test [9] and 0% in test [15]. In addition, the “Growth inhibition rate (%) redroot pigweed” value in test [11] and in test [18] was 100% each time. Moreover, the “Growth inhibition rate (%) Greenfoxtail” value in test [13] was 98%; in test [19] it was 100%.

Consider `CCOC(=O)COc1c(S(C)(=O)=O)ccc(C(=O)c2cnn(C)c2OC(=O)SCC)c1C` [compound 65], for which the results for the “Growth inhibition rate (%) Barnyardgrass” value in test [1] and in test [10] were 20% and 0%, respectively. The “Growth inhibition rate (%) Rice” value in [2] and in [5] was 0% in each case. Moreover, the figures for the “Growth inhibition rate (%) Velvetleaf” value in [3] and in test [14] were 0% and 50%, respectively. For the same compound, the “Growth inhibition rate (%) Corn” value in test [4] and in test [12] was 0% in each case. The entries for the “Growth inhibition rate (%) Prickly sida” value in test [6] and in test [16] were 30% and 0%, respectively. Besides, the “Growth inhibition rate (%) Crabgrass” value in [7] and in [17] was 10% each time. Moreover, the “Growth inhibition rate (%) Wheat” value in [8] and in [20] was 0% each time. Further, the “Growth inhibition rate (%) Soybean” value in [9] came to 10%; in [15] it was 0%. Moreover, the “Growth inhibition rate (%) redroot pigweed” value in test [11] amounted to 30%; in test [18], 20%. The “Growth inhibition rate (%) Greenfoxtail” value in test [13] and in test [19] was 10% in each case.

As for `CCC(C)SC(=O)Oc1c(C(=O)c2ccc(S(C)(=O)=O)c(C(=O)OC)c2C)cnn1CC` (centres unmarked) [compound 89], the results for the “Growth inhibition rate (%) Barnyardgrass” value in test [1] and in [10] were 100% and 70%, respectively. Besides, the “Growth inhibition rate (%) Rice” value was 80% in test [2] and 100% in test [5]. Moreover, the figures for the “Growth inhibition rate (%) Velvetleaf” value in [3] and in test [14] were 70% and 100%, respectively. For the same compound, the results for the “Growth inhibition rate (%) Corn” value in test [4] and in [12] were 20% and 0%, respectively. Further, the “Growth inhibition rate (%) Prickly sida” value in test [6] was determined as 60%; in test [16], 50%. Moreover, the results for the “Growth inhibition rate (%) Crabgrass” value in [7] and in [17] were 95% and 100%, respectively. Moreover, the “Growth inhibition rate (%) Wheat” value in [8] came to 0%; in test [20], 20%. Further, the “Growth inhibition rate (%) Soybean” value in test [9] is 95%; in [15] it was 0%. The “Growth inhibition rate (%) redroot pigweed” value in test [11] and in test [18] was 90% each time. The “Growth inhibition rate (%) Greenfoxtail” value in [13] is reported as 100%; in test [19], 80%.

As for `CCOc1c(S(C)(=O)=O)ccc(C(=O)c2cnn(C)c2OC(=O)SCC)c1C` [compound 36], the “Growth inhibition rate (%) Barnyardgrass” value in test [1] and in test [10] was 100% each time. Further, the “Growth inhibition rate (%) Rice” value came to 80% in test [2] and 70% in test [5]. Further, the “Growth inhibition rate (%) Velvetleaf” value in test [3] amounted to 50%; in test [14] it was 100%. Besides, the “Growth inhibition rate (%) Corn” value in [4] is recorded as 10%; in test [12], 0%. In addition, the figures for the “Growth inhibition rate (%) Prickly sida” value in test [6] and in [16] were 100% and 60%, respectively. The figures for the “Growth inhibition rate (%) Crabgrass” value in test [7] and in test [17] were 100% and 98%, respectively. The “Growth inhibition rate (%) Wheat” value amounted to 0% in [8] and 50% in test [20]. Further, the “Growth inhibition rate (%) redroot pigweed” value in test [11] and in test [18] was 100% each time. Moreover, the “Growth inhibition rate (%) Greenfoxtail” value in test [13] and in test [19] was 100% in each case. In test [15], the “Growth inhibition rate (%) Soybean” value worked out at 30%.

`CCSC(=O)Oc1c(C(=O)c2ccc(S(C)(=O)=O)c(C(=O)OC)c2C)cnn1C` [Compound No. 1, 5-(ethylthio)carbonyloxy-1-methylpyrazol-4-yl 3-(methoxycarbonyl)-2-methyl-4-(methylsulfonyl)phenyl ketone]: the pest or weed control at 31 g/ha in test [1] (Echinochloa crus-galli) came to 90%; in test [4] (Zea mays) it was 10%; in test [5] (Oryza sativa), 80%; in test [13] (Setaria viridis) it was 100%; in test [14] (Abutilon theophrasti), 100%; in [17] (Digitaria sanguinalis) it was 80%. Also, in [20] (Triticum), the pest or weed control at 31 g/ha was determined as 0%. For the same compound, the inhibition at 250 g/ha in test [2] (Oryza sativa) came out at 95%; in test [3] (Abutilon theophrasti), 60%; in test [7] (Digitaria sanguinalis), 100%; in test [8] (Triticum aestivum), 10%; in test [10] (Echinochloa crus-galli), 100%; in [12] (Zea mays) it was 0%. The inhibition at 250 g/ha in test [15] (Glycine max) stood at 75%; in test [16] (Sida spinosa), 60%; in test [18] (Amaranthus retroflexus), 100%; in test [19] (Setaria viridis) it was 100%. The “Growth inhibition rate (%) Prickly sida” value in test [6] amounted to 70%. In addition, in test [11], the “Growth inhibition rate (%) redroot pigweed” value is recorded as 100%.

Regarding `CCSC(=O)Oc1c(C(=O)c2ccc(S(C)(=O)=O)c(CC(=O)OC)c2C)cnn1C` [compound 64], the “Growth inhibition rate (%) Barnyardgrass” value in test [1] is listed as 100%; in test [10], 90%. Further, the “Growth inhibition rate (%) Rice” value in [2] and in test [5] was 70% each time. Besides, the entries for the “Growth inhibition rate (%) Velvetleaf” value in test [3] and in [14] were 30% and 85%, respectively. Further, the “Growth inhibition rate (%) Corn” value in [4] and in test [12] was 0% in each case. For the same compound, the “Growth inhibition rate (%) Prickly sida” value in test [6] and in [16] was 60% in each case. In addition, the “Growth inhibition rate (%) Crabgrass” value in test [7] is reported as 95%. Further, the “Growth inhibition rate (%) Wheat” value in test [8] and in [20] was 0% in each case. Besides, the “Growth inhibition rate (%) redroot pigweed” value in test [11] and in test [18] was 80% each time. For the same compound, the entries for the “Growth inhibition rate (%) Greenfoxtail” value in test [13] and in [19] were 65% and 50%, respectively. Also, in [15], the “Growth inhibition rate (%) Soybean” value is listed as 0%.
